Source: paper PMC3479967 (Evidence-based Complementary and Alternative Medicine : eCAM, 2012)

What was measured:
[1] = biological target: T1, UGT1A1 (Homo sapiens, UniProt P22309); assay: Inhibition of recombinant UGT1A1 activity (4-MU glucuronidation)
T1 sequence (P22309 26-533): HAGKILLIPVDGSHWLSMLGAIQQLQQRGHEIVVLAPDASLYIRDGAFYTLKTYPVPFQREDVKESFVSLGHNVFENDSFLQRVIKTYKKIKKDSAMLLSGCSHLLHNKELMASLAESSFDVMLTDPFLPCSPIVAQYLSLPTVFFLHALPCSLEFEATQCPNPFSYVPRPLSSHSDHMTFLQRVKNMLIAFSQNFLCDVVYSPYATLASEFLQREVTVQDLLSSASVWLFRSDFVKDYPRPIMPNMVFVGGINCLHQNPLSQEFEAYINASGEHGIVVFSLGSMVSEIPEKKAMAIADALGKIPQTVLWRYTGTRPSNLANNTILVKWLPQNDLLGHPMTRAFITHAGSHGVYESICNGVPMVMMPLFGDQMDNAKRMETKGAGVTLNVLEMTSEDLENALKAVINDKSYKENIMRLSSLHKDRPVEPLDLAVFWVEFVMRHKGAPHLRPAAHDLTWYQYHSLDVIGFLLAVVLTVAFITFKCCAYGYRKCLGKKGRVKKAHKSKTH
Protocol: (§1) A panel of recombinant human UGT supersomes (UGT1A1, UGT1A3, UGT1A4, UGT1A6, UGT1A7, UGT1A8, UGT1A9, UGT1A10, UGT2B4, UGT2B7, UGT2B15, and UGT2B17) expressed in baculovirus-infected insect cells were purchased from BD Gentest Corp. (Woburn, MA, USA).
(§2) 4-MU, a nonselective substrate of UGTs, was used as probe substrate for all UGTs except UGT1A4. Incubations with each individual enzyme were conducted using conditions previously described. There was a 5 min preincubation step at 37°C before the reaction was started by addition of UDPGA. The incubation mixtures were then centrifuged at 20,500 ×g for 15 min to obtain the supernatant. Aliquots (20 μL) were then analyzed by HPLC. The HPLC system (SHIMADZU, Kyoto, Japan) consisted of an SCL-10A system controller, two LC-10AT pumps, a SIL-10A auto injector, and a SPD-10AVP UV detector. Chromatographic separation was achieved using a Kromasil ODS column (4.6 × 150 mm I.D., 5 μm particle size) at a flow rate of 1 mL/min and UV detection at 316 nm. The mobile phase consisted of 10 mM KH2PO4, pH 2.7 (A) and acetonitrile (B). The following gradient was applied at a flow rate of 1 mL/min: 0–4 min 80% A and 20% B, 4.1–8 min 50% A and 50% B, 8.1–12 min, 30% A and 70% B. All experiments were performed in two independent experiments in duplicate.
(§3) A typical incubation mixture contained recombinant human UGTs, 5 mM MgCl2, 5 mM UDPGA, 50 μg/mg protein alamethicin, 50 mM Tris-HCl buffer (pH 7.4), and various probe substrates of UGTs in the absence or presence of different concentrations of inhibitors. […] The final concentration of DMSO in the incubation system was 1% (v/v). […]
(§4) Inhibition data from experiments were graphically represented by Dixon plots. K i values were calculated by nonlinear regression using the equations for competitive inhibition (1), noncompetitive inhibition (2), or mixed inhibition (3), [22] […] The type of inhibition was determined from the enzyme inhibition models. Goodness of fit to kinetic and inhibition models was assessed from the F statistic, r ^2 values, parameter standard error estimates, and 95% confidence intervals. […]

[2] = biological target: T2, UGT2B15 (Homo sapiens, UniProt P54855); assay: Inhibition of recombinant UGT2B15 activity (4-MU glucuronidation)
T2 sequence (P54855 24-530): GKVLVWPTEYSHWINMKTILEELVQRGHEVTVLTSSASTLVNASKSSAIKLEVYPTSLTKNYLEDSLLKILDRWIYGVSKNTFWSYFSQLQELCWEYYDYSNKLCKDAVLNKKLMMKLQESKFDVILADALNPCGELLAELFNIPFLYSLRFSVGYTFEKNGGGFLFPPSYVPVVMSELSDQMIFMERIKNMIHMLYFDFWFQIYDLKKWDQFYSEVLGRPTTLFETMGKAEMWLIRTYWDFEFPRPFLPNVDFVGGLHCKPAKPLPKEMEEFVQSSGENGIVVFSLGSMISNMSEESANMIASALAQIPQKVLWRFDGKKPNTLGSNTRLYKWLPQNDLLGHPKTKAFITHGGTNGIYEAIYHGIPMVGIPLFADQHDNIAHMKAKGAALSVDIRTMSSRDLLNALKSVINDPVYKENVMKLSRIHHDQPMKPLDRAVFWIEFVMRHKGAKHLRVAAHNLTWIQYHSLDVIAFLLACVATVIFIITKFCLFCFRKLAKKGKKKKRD
Protocol: as §1, §2, §3, §4

[3] = Calculation of possible maximum concentrations in blood; set-up: species or system human; conditions: calculated, after a single oral administration of Epimedium pubescens decoction

| IC50 [1] [µM] | IC50 [2] [µM] | Possible maximum concentration in human blood [3] | Structure (SMILES) |
| --- | --- | --- | --- |
| > 100 | > 100 | ~1.5 nM | COc1ccc(-c2oc3c(CC=C(C)C)c(O)cc(O)c3c(=O)c2O)cc1 [Icaritin] |
| > 100 | > 100 | ~0.1 nM | COc1ccc(-c2oc3c(CC=C(C)C)c(O[C@@H]4O[C@H](CO)[C@@H](O)[C@H](O)[C@H]4O)cc(O)c3c(=O)c2O)cc1 [Icariside I] |

| Structure (SMILES) | IC50 [1] [µM] | IC50 [2] [µM] | Possible maximum concentration in human blood [3] |
| --- | --- | --- | --- |
| COc1ccc(-c2oc3c(CC=C(C)C)c(O[C@@H]4O[C@H](CO)[C@@H](O)[C@H](O)[C@H]4O)cc(O)c3c(=O)c2O[C@@H]2O[C@@H](C)[C@H](O)[C@@H](O)[C@H]2O)cc1 [Icariin] | > 100 | > 100 | about 1.3 nM |
